Measurements published in patent publication US20120088262A1, “CYANINE COMPOUNDS, CONJUGATES AND METHOD OF USE” (Millipore Corporation, priority 2010, published 2012).
Values belong to the molecule of their own block, whether it stands above or below them.

What was measured:
[1] = Fluorescence excitation and emission spectrum of the dyes; format: physicochemical; conditions: for Em / emission max / Ex Peak / excitation max: solvent not given
live and dead cells = test: Cell viability detection with amine reactive viability dye by flow cytometry; format: cell-based; conditions: mix of live and dead cells
Method: Pipet 100 uL of prepared cells in biological buffer or media in a reaction vessel such as a tube or microwell plate. Add 100 uL of working solution to 100 uL cell sample; mix well and incubate at the room temperature for 15 minutes. Remove supernatant without disturbing the pellet. Wash the cells with PBS with bovine serum albumin (BSA) (range 0.2-10%) per well; centrifuge plate at 1000 rpm for 5 minutes; remove the supernatant by aspiration without disturbing the cell pellet.
Cells were killed by heat or treated with diamide or staurosporine inducers.

painted cells = test: Cell painting applications; format: cell-based

SMILES: O=C(O)Cc1ccc(CN2/C(=C/C=C/c3oc4ccccc4[n+]3Cc3ccc(CC(=O)O)cc3)Oc3ccccc32)cc1.[Br-] [Compound No. 9]
- Em ([1]; in Methanol): 507 nm
- Ex ([1]; in Methanol): 489 nm
- Em / emission max [1]: 507 nm
- Ex Peak / excitation max [1]: 489 nm

SMILES: O=C(Cc1ccc(CN2/C(=C/C=C/c3oc4ccccc4[n+]3Cc3ccc(CC(=O)ON4C(=O)CCC4=O)cc3)Oc3ccccc32)cc1)ON1C(=O)CCC1=O.[Br-] [Compound No. 10]
- Em ([1]; in Methanol): 508 nm
- Ex ([1]; in Methanol): 490 nm
- Em / emission max [1]: 507 nm
- Ex Peak / excitation max [1]: 489 nm

SMILES: CC(C(=O)O)c1ccc(C[N+]2=C(/C=C/C=C3\Oc4ccccc4N3Cc3ccc(CC(=O)O)cc3)C(C)(C)c3cc(S(=O)(=O)[O-])ccc32)cc1 (stereo not drawn) [Compound No. 11]
- Em ([1]; in Methanol): 541 nm
- Ex ([1]; in Methanol): 510 nm
- Em / emission max [1]: 542 nm
- Ex Peak / excitation max [1]: 510 nm

SMILES: CC(C(=O)ON1C(=O)CCC1=O)c1ccc(C[N+]2=C(/C=C/C=C3\Oc4ccccc4N3Cc3ccc(CC(=O)ON4C(=O)CCC4=O)cc3)C(C)(C)c3cc(S(=O)(=O)[O-])ccc32)cc1 (stereo not drawn) [Compound No. 12]
- Em ([1]; in Methanol): 541 nm
- Ex ([1]; in Methanol): 510 nm
- Em / emission max [1]: 541 nm
- Ex Peak / excitation max [1]: 510 nm
- separation of live and dead cells (live and dead cells): excellent separation of live and dead cells

SMILES: CC1(C)C(/C=C/C=C/C=C2\Oc3ccccc3N2Cc2ccc(CC(=O)ON3C(=O)CCC3=O)cc2)=[N+](Cc2ccc(CC(=O)ON3C(=O)CCC3=O)cc2)c2ccc(S(=O)(=O)[O-])cc21 [Compound No. 14]
- Em ([1]; in Methanol): 642 nm
- Ex ([1]; in Methanol): 609 nm
- absorption max ([1]; in Methanol): 609 nm
- Em / emission max [1]: 642 nm
- Ex Peak / excitation max [1]: 609 nm
- separation of live and dead cells (live and dead cells): can clearly distinguish live (low fluorescence) and dead cells (high fluorescence)

Continued, in another order:

- Em ([1]; in Methanol): 679 nm
- Ex ([1]; in Methanol): 650 nm
- Em / emission max [1]: 642 nm
- Ex Peak / excitation max [1]: 609 nm
SMILES: CC1(C)C(/C=C/C=C/C=C2/N(Cc3ccc(CC(=O)O)cc3)c3ccccc3C2(C)C)=[N+](Cc2ccc(CC(=O)O)cc2)c2ccccc21.[Br-] [Compound No. 16]

- Em ([1]; in Methanol): 574 nm
- Ex ([1]; in Methanol): 551 nm
- Em / emission max [1]: 574 nm
- Ex Peak / excitation max [1]: 551 nm
SMILES: Cc1ccc(CN2/C(=C/C=C/C3=[N+](Cc4ccc(C)cc4)c4ccccc4C3(C)C)C(C)(C)c3ccccc32)cc1.[Br-] [Compound No. 18]
- utility for labeling and painting cells (painted cells): good utility for painting cells

- Em ([1]; in Methanol): 674 nm
- Ex ([1]; in Methanol): 650 nm
- Em / emission max [1]: 674 nm
- Ex Peak / excitation max [1]: 650 nm
SMILES: Cc1ccc(CN2/C(=C/C=C/C=C/C3=[N+](Cc4ccc(C)cc4)c4ccccc4C3(C)C)C(C)(C)c3ccccc32)cc1.[Br-] [Compound No. 19]
- utility for labeling and painting cells (painted cells): good utility for labeling and painting cells
- retention of dye in painted cells (painted cells; 3 h time period): good retention of dye
- localization of dye (painted cells; microscopy): localized intracellularly
